# Reference: publication PMC13114161 (Antibiotics, 2026)
# Where two headings read alike, the source gives them in different places.
# Columns and labels:
# [1] = system: P. aeruginosa ATCC 27853; experiment: Ethidium bromide efflux inhibition; type: cell-based, Pseudomonas aeruginosa
# Description: In the first assay, the efflux of ethidium bromide (EtBr) by P. aeruginosa cells is studied in the presence of different concentrations of TXA11114.
# [2] = Microsomal stability; type: in vitro ADME; settings: rat, liver microsomes, pH 7.4; read-out: Microsome Stability t1/2
# Description: (§1) The metabolic stability of TXA11114 was evaluated in liver microsomes from human (HLM), dog (DLM), rat (RLM), and mouse (MLM). Test compound disappearance over time was monitored by LC-MS/MS. Verapamil (HLM and RLM) and imipramine (DLM and MLM) were used as positive controls. […] Aliquots (70 µL) were transferred to 96-well reaction plates and pre-incubated at 37 °C for 5 min. Reactions were initiated by adding 30 µL NADPH (final concentration 1 mM). Control incubations lacking NADPH were included to assess non-enzymatic degradation. Reactions were terminated at 0, 5, 15, 30, and 60 min by the addition of 100 µL ice-cold acetonitrile containing glipizide as an internal standard.
# [3] = in vitro; type: cell-based; settings: human
# Description: (§2) The cytotoxicity of TXA11114 was evaluated in HEK293T and A549 cell lines using the CellTiter-Glo™ assay (Promega, Madison, WI, USA). HEK293T cells (human embryonic kidney cells transformed with sheared adenovirus 5 DNA and expressing SV40 large T antigen) and A549 cells (human alveolar basal epithelial adenocarcinoma cell line; hypotriploid with a modal chromosome number of 66) were obtained from Sai Life Sciences Ltd. (Hyderabad, India). These cell lines are well-characterized and consistent with commonly used reference lines (e.g., A549, ATCC CCL-185).
# (§3) TXA11114 was tested in a dose–response format with a top concentration of 20 µM using 2-fold serial dilutions in triplicate. Doxorubicin and staurosporine were included as reference controls. Cells (1200 cells/well in 27 µL complete medium) were seeded into 384-well plates and incubated overnight at 37 °C with 5% CO2. The following day, cells were treated with 3 µL of 10× serially diluted compounds. After a 24 h incubation, CellTiter-Glo reagent was added, and plates were gently shaken for 15–20 min at room temperature. Luminescence was measured using an EnVision multimode plate reader (PerkinElmer, Thane, India).
# [4] = in vitro; type: cell-based; settings: human; remark: listed apart in the source
# Description: as §2, §3
# [5] = Microsomal stability; type: in vitro ADME, human; settings: pH 7.4
# Description: as §1
# [6] = system: P. aeruginosa ATCC 27853; experiment: Nitrocefin assay for outer-membrane permeabilization; type: cell-based, Pseudomonas aeruginosa
# Description: The significant toxicity of previously identified EPIs has prevented their clinical use. So, understanding the TXA11114 mechanism of action (MoA) was of paramount importance to eliminate off-target effects that may arise from other activities besides efflux pump inhibition. Historically EPIs are known to augment the action of traditional antibiotics by compromising the integrity of bacterial membranes, allowing increased drug accumulation. One of the major concerns of earlier EPIs was their ability to disrupt bacterial membranes. Two approaches were taken to investigate if membrane disruption played a role in the potentiation of antibiotics seen in Table 2 by TXA11114: (1) a flow cytometry-based propidium iodide (PI) assay to monitor inner-membrane permeabilization, and (2) a nitrocefin (NCF) assay to monitor outer-membrane permeabilization. NCF is a chromogenic cephalosporin that changes from yellow to red when the amide bond in the β-lactam ring is hydrolyzed by a β-lactamase. The rate of hydrolysis in intact cells is slow, as it is limited by the rate of diffusion of […]. […] Cells with intact membranes exclude PI and remain non-fluorescent, while cells with compromised membrane integrity allow PI to enter and bind to DNA, resulting in fluorescence. […]
# [7] = system: P. aeruginosa; set-up: method as in PMID 35052908, PMID 35740123; settings: against P. aeruginosa; cited from earlier work
SMILES,Minimal potentiation concentration (MPC) ([1]; elevated inoculum of EtBr assay (approximately 1000-fold greater)),EtBr efflux blockade (fluorescence) ([1]; increasing TXA11114 concentration),half-life at 1 µM [2],IC50 at 24 h [3],IC50 at 24 h [4],"half-life at 1 µM ([5]; human, liver microsomes, read-out: Microsome Stability t1/2)","half-life at 1 µM ([5]; human and rat liver microsomes, read-out: Microsomal stability half-life)",Concentrations at which impact on NCF hydrolysis is minimal [6],"Lowest concentration enhancing activity of monobactams, fluoroquinolones, sulfonamides and tetracyclines [7]"
"NCC(F)C[C@@H](N)CNC(=O)c1cc2ccc(-c3ccc(F)cc3)cc2[nH]1 (stereo partly drawn) [TXA11114, N-((2R)-2,5-diamino-4-fluoropentyl)-6-(4-fluorophenyl)-1H-indole-2-carboxamide]",12.5 µg/mL,fluorescence intensity increased proportionally,> 1 h,> 20 µM,> 20 µM,> 1 h,> 1 h,below 25 μg/mL,–
NC[C@@H]1CN[C@H](CNC(=O)c2cc3ccc(-c4ccc(F)cc4)cc3[nH]2)C1 [TXA09155],–,–,–,–,–,–,–,–,6.25 µg/mL
